Measurements from patent US10562922B2, “Silicon based cyclic compounds and pharmaceutical compositions for treating malaria and toxoplasmosis” (Council of Scientific and Industrial Research, priority 2016, dated 2020).
Values joined by “and” are separate entries in the source; they are usually repeats but may differ in a detail not shown here. Equal values may be shown once. Read-outs that look alike come from different tables or passages of the source.

What was measured:
T. gondii = assay: Anti-toxoplasma screening (TgLuc+ luciferase growth assay in HFF host cells); type: cell-based, Toxoplasma gondii
Description: b) Anti-toxoplasma Screening:
For screening bioactivity of test molecules against T. gondii, a transgenic line of the parasite (TgLuc+) expressing the luciferase gene is used [Edwin Kamau, Tracy Meehan, Mark D. Lavine, Gustavo Arrizabalaga, Gabriela Mustata Wilson and Jon Boyle. A Novel Benzodioxole-Containing Inhibitor of Toxoplasmagondii Growth Alters the Parasite Cell Cycle. Antimicrob Agents Chemother. 2011, 55(12): 5438-5451]. The parental parasite used to generate the TgLuc+ strain is aType I (RH) virulent strain (ATCC reference 50174D), which can also be used for in vivo studies in mice, if needed. The tachyzoite stage of the parasites are routinely cultured in the laboratory using standard protocols [Roos D S, Donald R G, Morrissette N S, Moulton A L. Molecular tools for genetic dissection of the protozoan parasite Toxoplasma gondii. Methods Cell Biol. 1994, 45:27-63]. In brief, a confluent monolayer of Human Foreskin Fibroblast (HFF; ATCC reference SCRS-1041) cells in culture are used as the host cells for infection with tachyzoitestage T. gondii. The culture media used to grow parasites is standard complete DMEM (Gibco BRL, USA) containing glucose (5.5 mM), glutamine (2 mM), Hepes (25 mM) and 1% dialyzed bovine fetal calf serum (Gibco BRL, USA). For bioactivity assays, the HFF cells are grown in 96 well plates and each well is infected with 1×10^4TgLuc+parasitesin the presence of 10 μM test molecules (in primary screens) in a total volume of 200 μL. After 2 days of incubation and growth in a 37° C. incubator maintaining 5% CO2, the 96 well plates are processed for luminescence measurements using the reagents in the luciferase assay kit (Promega, USA). The results are corrected for background (uninfected HFF cultures), and normalized against both positive (untreated parasite cultures) and negative (standard drug treated parasite cultures) to identify those molecules with % inhibition values >80% for further dose analysis and IC50 determination using a dilution series ranging from 10 μM to 1 nM. Data from the preliminary screen (@ 10 μM only) is shown in Table-1 and dose response experiments are underway.

[1] = tested on: Plasmodium falciparum (3D7); assay: Anti-malarial screening (SybrGreen parasite growth assay); type: cell-based; conditions: for inhibition at 10 µM: read-out: % inhibition (P. falciparum)
Method: a) Anti-malarial Screening:
Plasmodium falciparum (3D7; Malaria Research and Reference Reagent Resource Center ID NO: MRA-102) is cultured in the laboratory as per standard protocols [Moll K., Ljungström I., Perlmann H., Scherf A., and Wahlgren M., (Editors). Methods in Malaria Research. Joint publication by Malaria Research and Reference Reagent Resource Center (MR4), ATCC, USA and BioMalPar, EU. 2008]. Briefly, P. falciparum is cultured using 2% hematocrit washed RBCs, separated from freshly collected human blood, in RPMI media containing glutamine, sodium bicarbonate and antibiotics. Parasites are routinely synchronized using 5% sorbitol treatment. Anti-malarial screens are carried out in two stages: 1) a primary screen at a fixed concentration of 10 μM to find out % inhibition of growth; and 2) a dose assay for finding out the IC50 for hits identified from the primary screen. Assays are setup as follows. 200 μls of the diluted parasite culture (2% parasitemia and 2% hematocrit; at late ring stage), is added to each well in a 96 well plate pre-seeded with the compound of interest at the required concentration of 10 μM. The master stocks and dilutions of the compounds are prepared in cell culture grade DMSO. NOTE: DMSO only treatment control is done and the results are used for normalizing the data obtained from compound treatment. All compounds are plated in triplicates. Each 96 well plate also includes negative controls (compound untreated culture) and positive controls (standard anti-malarial treated culture). Standard anti-malarials used are chloroquine, artemisinine and atovaquone, each at 1 μM concentration. After plating, the culture is incubated in standard growth condition for 60 hours, after which the cultures are processed for testing the effect of compounds on parasite growth using SybrGreen staining and fluorescence measurements at […] emmission following excitation at 498 nm. Since only parasites have DNA (as RBCs are devoid of nucleus), the SybrGreen signal is a direct indictor of parasitemia in respective samples. Results are used to quantifying relative parasite growth (or conversely % inhibition of growth) in untreated, standard anti-malarial treated and test molecule treated P. falciparum cultures. […] Data from the preliminary screen (@ 10 μM only) along with data from the dose response experiment and IC50 values for the selected molecules are tabulated in Table-2.

[2] = primary screen at 10 μM, TgLuc+ tachyzoites in HFF cells, 2 days incubation
[3] = dose response, dilution series 10 μM to 1 nM, 3D7, read-out: IC50(P. falciparum)
[4] = primary screen at 10 μM, 3D7, 60 hours incubation
[5] = Toxoplasma gondii, 48 h; primary screen at 10 μM, TgLuc+ tachyzoites in HFF cells, 2 days incubation
[6] = Plasmodium falciparum, 3D7, dose response, dilution series 10 μM to 1 nM, 3D7, read-out: IC50(P. falciparum)
[7] = Plasmodium falciparum, primary screen at 10 μM, 3D7, 60 hours incubation
[8] = Plasmodium falciparum, 3D7, 60 h
[9] = Plasmodium falciparum, 3D7, read-out: IC50(P. falciparum, μM), dose response, dilution series 10 μM to 1 nM, 3D7

Compound | IC50 [1, 3] | inhibition at 10 µM (T. gondii; [5]) | IC50 [1, 6] | inhibition at 10 µM [1, 7] | other results
1,1-dibenzyl-4,4-diphenyl-1λ4,4-azasilinan-2-ylium bromide [NDS 100953] | 1.69 µM | – | – | – | % inhibition (T. gondii) (T. gondii; [2]): 39%; % inhibition (P. falciparum) [1, 4]: 94.96%
1-benzyl-1-ethyl-4,4-diphenyl-1λ4,4-azasilinan-2-ylium iodide [NDS 100952] | 0.33 µM | – | – | – | IC50 (T. gondii; dose response, dilution series 10 μM to 1 nM; read-out: IC50 (T gondii)): 1.24 µM; % inhibition (T. gondii) (T. gondii; [2]): 72.06%; % inhibition (P. falciparum) [1, 4]: 104.01%
c1ccc(CN2CC[Si](c3ccccc3)(c3ccccc3)CC2)cc1 [NDS 100860] | 2.3 µM | 99.4% | 1.75 µM | 112% | IC50 (T. gondii; read-out: IC50 (T gondii); dose response, dilution series 10 μM to 1 nM): 5.03 µM and 2.09 µM
C[N+]1(Cc2ccccc2)CC[Si](c2ccccc2)(c2ccccc2)CC1 [NDS 100861] | 2.39 µM | 36% | 1.64 µM | 115% | –
CC(C)=CC[N+]1(CC=C(C)C)CC[Si](c2ccccc2)(c2ccccc2)CC1 [NDS 101015, 1,1-bis(3-methylbut-2-en-1-yl)-4,4-diphenyl-1,4-azasilinan-1-ium bromide] | – | 20% | – | – | inhibition at 10 µM [1, 8]: 103%; IC50 [1, 9]: 0.48 µM; IC50 ([1]; read-out: IC50(P. falciparum), dose response, dilution series 10 μM to 1 nM, 3D7): 0.29 µM
c1ccc([Si]2(c3ccccc3)CC[N+]3(CCCCC3)CC2)cc1 [NDS 101017] | 2.07 µM and 4.98 µM | 0% | – | 87.1% | –
C=CC[N+]1(C)CC[Si](c2ccccc2)(c2ccccc2)CC1 [NDS 101039, 1-allyl-1-methyl-4,4-diphenyl-1,4-azasilinan-1-ium bromide] | – | 17% | – | – | inhibition at 10 µM [1, 8]: 76.2%; IC50 [1, 9]: 7.11 µM
C[N+]1(C)CC[Si](c2ccccc2)(c2ccccc2)CC1 [NDS 101044, 1,1-dimethyl-4,4-diphenyl-1,4-azasilinan-1-ium iodide] | – | 0% | 2.46 µM | 63.5% | –
